Measurements from ChEMBL document CHEMBL1697731, “Cheminformatics analysis of assertions mined from literature that describe drug-induced liver injury in different species” (Chem Res Toxicol, 2010).

Tests used:
Hepatotoxicity [1] = assay: Literature-mined compound from Fourches et al multi-species drug-induced liver injury (DILI) dataset, effect in humans; details: human
Hepatotoxicity [2] = assay: Literature-mined compound from Fourches et al multi-species drug-induced liver injury (DILI) dataset, effect in rodents; details: rodentia
Hepatotoxicity [3] = assay: Literature-mined compound from Fourches et al multi-species drug-induced liver injury (DILI) dataset, effect in non-rodents

SMILES | Hepatotoxicity (Hepatotoxicity [1]) | Hepatotoxicity (Hepatotoxicity [2]) | Hepatotoxicity (Hepatotoxicity [3]) | Hepatotoxicity (Hepatotoxicity [1]; Liver) | Hepatotoxicity (Hepatotoxicity [2]; Liver) | Hepatotoxicity (Hepatotoxicity [3]; Liver)
CN1CCN(CCCN2c3ccccc3Sc3ccc(Cl)cc32)CC1 [PROCHLORPERAZINE] | drug-induced liver injury reported | no drug-induced liver injury reported | no drug-induced liver injury reported |  |  | 
[H]/N=C(\N/C(=N/[H])Nc1ccc(Cl)cc1)NC(C)C [PROGUANIL] | drug-induced liver injury reported | no drug-induced liver injury reported | no drug-induced liver injury reported |  |  | 
CC(CN1c2ccccc2Sc2ccccc21)N(C)C (stereo not drawn) [PROMETHAZINE] | no drug-induced liver injury reported | drug-induced liver injury reported | drug-induced liver injury reported |  |  | 
CC(C)c1cccc(C(C)C)c1O [PROPOFOL] |  |  |  | drug-induced liver injury reported | drug-induced liver injury reported | drug-induced liver injury reported
CCC(=O)O[C@](Cc1ccccc1)(c1ccccc1)[C@H](C)CN(C)C [PROPOXYPHENE] | drug-induced liver injury reported | drug-induced liver injury reported | no drug-induced liver injury reported |  |  | 
CC(C)NCC(O)COc1cccc2ccccc12 (stereo not drawn) [PROPRANOLOL] | drug-induced liver injury reported | drug-induced liver injury reported | drug-induced liver injury reported |  |  | 
CCCc1cc(=O)[nH]c(=S)[nH]1 [PROPYLTHIOURACIL] |  |  |  | drug-induced liver injury reported | drug-induced liver injury reported | no drug-induced liver injury reported
CCCc1cc(C(N)=S)ccn1 [PROTIONAMIDE] | drug-induced liver injury reported | no drug-induced liver injury reported | no drug-induced liver injury reported |  |  | 
NC(=O)c1cnccn1 [PYRAZINAMIDE] | drug-induced liver injury reported | drug-induced liver injury reported | no drug-induced liver injury reported |  |  | 
CNC(=O)OCc1cccc(COC(=O)NC)n1 [PYRICARBATE] | drug-induced liver injury reported | drug-induced liver injury reported | no drug-induced liver injury reported |  |  | 
Cc1ncc(COP(=O)(O)O)c(C=O)c1O [PYRIDOXAL PHOSPHATE ANHYDROUS] | no drug-induced liver injury reported | drug-induced liver injury reported | no drug-induced liver injury reported |  |  | 
CCc1nc(N)nc(N)c1-c1ccc(Cl)cc1 [PYRIMETHAMINE] | drug-induced liver injury reported | drug-induced liver injury reported | no drug-induced liver injury reported |  |  | 
CCN(CC)CCCC(C)Nc1c2ccc(Cl)cc2nc2ccc(OC)cc12 (stereo not drawn) [QUINACRINE] | drug-induced liver injury reported | drug-induced liver injury reported | drug-induced liver injury reported |  |  | 
C#C[C@]1(O)CC[C@H]2[C@@H]3CCc4cc(OC5CCCC5)ccc4[C@H]3CC[C@@]21C [QUINESTROL] | no drug-induced liver injury reported | drug-induced liver injury reported | no drug-induced liver injury reported |  |  | 
C=C[C@H]1C[N@@]2CC[C@H]1C[C@@H]2[C@@H](O)c1ccnc2ccc(OC)cc12 [QUINIDINE] | drug-induced liver injury reported | drug-induced liver injury reported | no drug-induced liver injury reported |  |  | 
CCO[C@@H](Cc1ccc(OCCN2c3ccccc3Oc3ccccc32)cc1)C(=O)O [RAGAGLITAZAR] | no drug-induced liver injury reported | drug-induced liver injury reported | no drug-induced liver injury reported |  |  | 
Cc1nc2ccc(CN(C)c3ccc(C(=O)N[C@@H](CCC(=O)O)C(=O)O)s3)cc2c(=O)[nH]1 [RALTITREXED] | drug-induced liver injury reported | no drug-induced liver injury reported | no drug-induced liver injury reported |  |  | 
CNC(=C[N+](=O)[O-])NCCSCc1ccc(CN(C)C)o1 [RANITIDINE] | drug-induced liver injury reported | drug-induced liver injury reported | drug-induced liver injury reported |  |  | 
O=C(NC(Cc1cc(=O)[nH]c2ccccc12)C(=O)O)c1ccc(Cl)cc1 (stereo not drawn) [REBAMIPIDE] | no drug-induced liver injury reported | drug-induced liver injury reported | no drug-induced liver injury reported |  |  | 
Cc1oc(-c2ccccc2)nc1CCOc1ccc(CC2C(=O)NOC2=O)cc1 (stereo not drawn) [REGLITAZAR] | no drug-induced liver injury reported | drug-induced liver injury reported | no drug-induced liver injury reported |  |  | 
COC(=O)[C@H]1[C@H]2C[C@@H]3c4[nH]c5cc(OC)ccc5c4CCN3C[C@H]2C[C@@H](OC(=O)c2cc(OC)c(OC)c(OC)c2)[C@@H]1OC [RESERPINE] | no drug-induced liver injury reported | drug-induced liver injury reported | no drug-induced liver injury reported |  |  | 
CC1=C(/C=C/C(C)=C/C=C/C(C)=C/CO)C(C)(C)CCC1 [RETINOL] |  |  |  | drug-induced liver injury reported | drug-induced liver injury reported | drug-induced liver injury reported
NC(=O)c1ncn([C@@H]2O[C@H](CO)[C@@H](O)[C@H]2O)n1 [RIBAVIRIN] | drug-induced liver injury reported | drug-induced liver injury reported | no drug-induced liver injury reported |  |  | 
Cc1cc2nc3c(=O)[nH]c(=O)nc-3n(C[C@H](O)[C@H](O)[C@H](O)CO)c2cc1C [RIBOFLAVIN] | drug-induced liver injury reported | no drug-induced liver injury reported | no drug-induced liver injury reported |  |  | 
CO[C@H]1/C=C/O[C@@]2(C)Oc3c(C)c(O)c4c(c3C2=O)C2=NC3(CCN(CC(C)C)CC3)NC2=C(NC(=O)/C(C)=C\C=C\[C@H](C)[C@H](O)[C@@H](C)[C@@H](O)[C@@H](C)[C@H](OC(C)=O)[C@@H]1C)C4=O [RIFABUTIN] |  |  |  | drug-induced liver injury reported | drug-induced liver injury reported | no drug-induced liver injury reported
CO[C@H]1/C=C/O[C@@]2(C)Oc3c(C)c(O)c4c(O)c(c(/C=N/N5CCN(C)CC5)c(O)c4c3C2=O)NC(=O)/C(C)=C\C=C\[C@H](C)[C@H](O)[C@@H](C)[C@@H](O)[C@@H](C)[C@H](OC(C)=O)[C@@H]1C [RIFAMPIN] | drug-induced liver injury reported | drug-induced liver injury reported | drug-induced liver injury reported |  |  | 
